Data as given in ChEMBL document CHEMBL1201862, “PubChem BioAssay data set” (2004).
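Assay format: 96-well plates, 48-hour exposure. Here, GI50 denotes the concentration required for 50% inhibition of growth.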 Calls of active or inactive are those of the source. Cut-off read from the data, not from the text of the source: active = GI50 up to about 1.1 µM and inactive = higher.

How the values were obtained:
Assay in all cases: NCI-60 cell line screen, 48 h
LOX IMVI = system: LOX IMVI
M14 = system: M14
A549 = system: A549
HCC 2998 = system: HCC 2998
UO-31 = system: UO-31
NCI-H460 = system: NCI-H460
CCRF-CEM = system: CCRF-CEM
HL-60 = system: HL-60
COLO 205 = system: COLO 205
NCI-H522 = system: NCI-H522
ACHN = system: ACHN
U-251 = system: U-251
OVCAR-5 = system: OVCAR-5
Malme-3M = system: Malme-3M
SW-620 = system: SW-620
HCT-116 = system: HCT-116
MDA-MB-231 = system: MDA-MB-231
IGROV-1 = system: IGROV-1
MDA-MB-435 = system: MDA-MB-435
MCF7 = system: MCF7

Row | Compound | GI50 (LOX IMVI) | GI50 (M14) | GI50 (A549) | GI50 (HCC 2998) | GI50 (UO-31) | GI50 (NCI-H460) | GI50 (CCRF-CEM) | GI50 (HL-60) | GI50 (COLO 205) | GI50 (NCI-H522) | GI50 (ACHN) | GI50 (U-251) | GI50 (OVCAR-5) | GI50 (Malme-3M) | GI50 (SW-620) | GI50 (HCT-116) | GI50 (MDA-MB-231) | GI50 (IGROV-1) | GI50 (MDA-MB-435) | GI50 (MCF7)
1 | COc1cc(C=C2C(=O)OC(C)(C)OC2=O)cc(OC)c1OC | > 100 µM (inactive) | > 100 µM (inactive) | > 100 µM (inactive) | > 100 µM (inactive) | > 100 µM (inactive) | > 100 µM (inactive) | > 100 µM (inactive) | > 100 µM (inactive) | > 100 µM (inactive) | > 100 µM (inactive) | > 100 µM (inactive) | > 100 µM (inactive) | > 100 µM (inactive) | > 100 µM (inactive) | > 100 µM (inactive) | > 100 µM (inactive) |  |  |  | 
2 | COc1cccc(CSCC(=O)O)c1 | > 100 µM (inactive) | > 100 µM (inactive) | > 100 µM (inactive) |  | > 100 µM (inactive) | > 100 µM (inactive) |  |  | > 100 µM (inactive) | > 100 µM (inactive) | > 100 µM (inactive) | > 100 µM (inactive) | > 100 µM (inactive) | > 100 µM (inactive) | > 100 µM (inactive) | > 100 µM (inactive) | > 100 µM (inactive) | > 100 µM (inactive) | > 100 µM (inactive) | > 100 µM (inactive)
3 | O=C(c1nc2ccc(Cl)cc2[nH]c1=O)C(O)c1cccc([N+](=O)[O-])c1 (stereo unspecified) | 18.5 µM (inactive) | > 100 µM (inactive) | > 100 µM (inactive) | > 100 µM (inactive) | 80.9 µM (inactive) | > 100 µM (inactive) | 5.06 µM (inactive) | 19.8 µM (inactive) | > 100 µM (inactive) | 16.2 µM (inactive) | 64.3 µM (inactive) | > 100 µM (inactive) | > 100 µM (inactive) | > 100 µM (inactive) |  | > 100 µM (inactive) |  | > 100 µM (inactive) |  | 
4 | O=C(c1ccco1)n1c2ccc(Br)cc2c2nc3ccccc3nc21 | 46.3 µM (inactive) | > 100 µM (inactive) |  | 61.1 µM (inactive) | 27 µM (inactive) | 28.6 µM (inactive) | 40.8 µM (inactive) | > 100 µM (inactive) | > 100 µM (inactive) | 12.1 µM (inactive) | 27.4 µM (inactive) | 40.8 µM (inactive) | > 100 µM (inactive) | 35 µM (inactive) | 42.6 µM (inactive) | 46.7 µM (inactive) |  | 19.4 µM (inactive) | > 100 µM (inactive) | 5.09 µM (inactive)
5 | CCOC(=O)c1c(N)sc2c1C(C(=O)OCC)CCC2 (stereo unspecified) |  | > 100 µM (inactive) | > 100 µM (inactive) | > 100 µM (inactive) | 47.4 µM (inactive) | > 100 µM (inactive) | > 100 µM (inactive) | 53.3 µM (inactive) | > 100 µM (inactive) |  | > 100 µM (inactive) | > 100 µM (inactive) | > 100 µM (inactive) | > 100 µM (inactive) | > 100 µM (inactive) | 79.8 µM (inactive) | > 100 µM (inactive) | > 100 µM (inactive) |  | > 100 µM (inactive)
6 | ClC(Cl)=C(Cl)C1(Cl)CC1COCc1ccccc1 (stereo unspecified) | 23.1 µM (inactive) | 32.4 µM (inactive) | 26.1 µM (inactive) | 31.6 µM (inactive) | 25.8 µM (inactive) | 38.5 µM (inactive) | 22.3 µM (inactive) | 15.6 µM (inactive) | 25.2 µM (inactive) | 16.5 µM (inactive) | 39.4 µM (inactive) |  | 32.6 µM (inactive) | 18.4 µM (inactive) | 30.9 µM (inactive) |  |  | 47.6 µM (inactive) |  | 
7 | COc1cc2c(cc1OCc1ccccc1)CNCC2 | 91.6 µM (inactive) | > 100 µM (inactive) | > 100 µM (inactive) | > 100 µM (inactive) | > 100 µM (inactive) | > 100 µM (inactive) | > 100 µM (inactive) | 70.3 µM (inactive) | > 100 µM (inactive) | > 100 µM (inactive) | > 100 µM (inactive) | > 100 µM (inactive) | > 100 µM (inactive) | > 100 µM (inactive) | 24.3 µM (inactive) | > 100 µM (inactive) |  | > 100 µM (inactive) |  | 
8 | N=c1c2ccccc2nc2oc3ccc(Cl)cc3n12 | 3.21 µM (inactive) | 9.4 µM (inactive) | 12.9 µM (inactive) | > 100 µM (inactive) | 16.4 µM (inactive) | 25.8 µM (inactive) | 43.9 µM (inactive) |  | 29.4 µM (inactive) | 17.3 µM (inactive) | 11.5 µM (inactive) | 5.38 µM (inactive) | 19.8 µM (inactive) | 10.8 µM (inactive) | 5.62 µM (inactive) | 10.6 µM (inactive) | 25.6 µM (inactive) | 16.4 µM (inactive) | 71.3 µM (inactive) | 
9 | NC(=S)N1N=C2CCCCCC[C@@H]2[C@H]1c1ccccc1 | 32.8 µM (inactive) | 74.5 µM (inactive) | 24.4 µM (inactive) | 79.4 µM (inactive) | 16.7 µM (inactive) | 35.2 µM (inactive) | 31.3 µM (inactive) | 19.2 µM (inactive) | 46.7 µM (inactive) | 21.2 µM (inactive) | 41.9 µM (inactive) | 46 µM (inactive) | > 100 µM (inactive) | 59.3 µM (inactive) | 28.6 µM (inactive) | 43.1 µM (inactive) |  | 63.2 µM (inactive) |  | 
10 | CC(C)=CCC/C(C)=C/CC/C(C)=C/[C@@H]1[C@@H](CO)[C@]1(C)CC/C=C(\C)CCC=C(C)C | 11.5 µM (inactive) | 91.4 µM (inactive) | 39.8 µM (inactive) |  | 18.6 µM (inactive) | 47.6 µM (inactive) | 0.251 µM (active) |  | 63.1 µM (inactive) | 17.1 µM (inactive) | 17.2 µM (inactive) | 53.7 µM (inactive) | 49.4 µM (inactive) | > 100 µM (inactive) | 22.6 µM (inactive) | 31.2 µM (inactive) | 21.6 µM (inactive) | 12.5 µM (inactive) | 85.9 µM (inactive) | 
11 | O=C(N/C(=C\c1cc(Cl)ccc1Cl)c1nc2cc(Cl)ccc2[nH]1)c1ccccc1 | 13.6 µM (inactive) | 17.1 µM (inactive) | 16.8 µM (inactive) | 18.2 µM (inactive) | 11.7 µM (inactive) | 15.1 µM (inactive) | 17 µM (inactive) | 14.3 µM (inactive) | 18.8 µM (inactive) | 12.4 µM (inactive) | 22.5 µM (inactive) | 16.1 µM (inactive) | 21.2 µM (inactive) | 18.9 µM (inactive) | 16.9 µM (inactive) | 10.5 µM (inactive) |  | 13.1 µM (inactive) |  | 
12 | COc1ccc(Cc2c(N)[nH]c(=O)[nH]c2=O)cc1 | > 100 µM (inactive) | > 100 µM (inactive) | > 100 µM (inactive) | > 100 µM (inactive) | 90.2 µM (inactive) | > 100 µM (inactive) |  |  | > 100 µM (inactive) | > 100 µM (inactive) | > 100 µM (inactive) | > 100 µM (inactive) | > 100 µM (inactive) | > 100 µM (inactive) | > 100 µM (inactive) | > 100 µM (inactive) | > 100 µM (inactive) | > 100 µM (inactive) | > 100 µM (inactive) | 
13 | O=C(O)C(O)c1ccc(F)cc1 (stereo unspecified) | > 100 µM (inactive) | > 100 µM (inactive) | > 100 µM (inactive) |  | > 100 µM (inactive) | > 100 µM (inactive) |  |  |  | > 100 µM (inactive) | > 100 µM (inactive) | > 100 µM (inactive) | > 100 µM (inactive) | > 100 µM (inactive) | > 100 µM (inactive) | > 100 µM (inactive) | > 100 µM (inactive) | > 100 µM (inactive) | > 100 µM (inactive) | > 100 µM (inactive)
14 | COc1ccc(NC(=O)CC(=O)N2N=C(N(CCC#N)c3ccccc3Cl)CC2c2ccccc2)cc1 (stereo unspecified) | > 100 µM (inactive) | > 100 µM (inactive) | > 100 µM (inactive) | > 100 µM (inactive) | > 100 µM (inactive) | > 100 µM (inactive) | > 100 µM (inactive) | > 100 µM (inactive) | > 100 µM (inactive) | > 100 µM (inactive) | > 100 µM (inactive) | > 100 µM (inactive) | > 100 µM (inactive) | > 100 µM (inactive) | > 100 µM (inactive) | > 100 µM (inactive) |  | > 100 µM (inactive) |  | 
15 | O=C(O)C1=Cc2cccc3cccc(c23)C1=O | > 100 µM (inactive) | > 100 µM (inactive) | > 100 µM (inactive) | > 100 µM (inactive) | 81.8 µM (inactive) | > 100 µM (inactive) | > 100 µM (inactive) | > 100 µM (inactive) | > 100 µM (inactive) | > 100 µM (inactive) | > 100 µM (inactive) | > 100 µM (inactive) | > 100 µM (inactive) | > 100 µM (inactive) | > 100 µM (inactive) | > 100 µM (inactive) |  | > 100 µM (inactive) |  | 
16 | CC1=NN(C(=O)c2ccccc2O)C(=O)/C1=C/c1cccc(O)c1 | 0.597 µM (active) | 0.446 µM (active) | 0.375 µM (active) | 12.6 µM (inactive) | 0.178 µM (active) | 0.774 µM (active) | 2.88 µM (inactive) | 2.9 µM (inactive) | 32.8 µM (inactive) | 1.22 µM (inactive) | 0.188 µM (active) | 0.277 µM (active) | 5.56 µM (inactive) | 1.94 µM (inactive) | 3.49 µM (inactive) | 0.244 µM (active) | 38.8 µM (inactive) | 0.198 µM (active) |  | 1.6 µM (inactive)
